Data reported in the NIST ThermoML archive (doi:10.1016/j.jct.2012.05.001).
± gives the expanded uncertainty stated by the source.

Settings: 101.33 kPa, Liquid; for viscosity: Falling or rolling sphere viscometry; for mass density: Vibrating tube method

Structure (SMILES) | viscosity (293.15 K) [mPa·s] | mass density (293.15 K) [kg/m3] | viscosity (298.15 K) [mPa·s] | mass density (298.15 K) [kg/m3] | viscosity (303.15 K) [mPa·s] | mass density (303.15 K) [kg/m3] | viscosity (323.15 K) [mPa·s] | mass density (323.15 K) [kg/m3] | viscosity (343.15 K) [mPa·s] | mass density (343.15 K) [kg/m3]
NCCO.O=CO [2-hydroxyethylammonium formate] | 67.61 ± 1.1 | 1178.5 ± 25 | 52.01 ± 0.61 | 1175.1 ± 25 | 40.51 ± 0.52 | 1171.7 ± 25 | 18.19 ± 0.26 | 1158.1 ± 25 | 9.698 ± 0.14 | 1144.3 ± 25
O=C[O-].OCC[NH2+]CCO [diethanolammonium formate] | 807.6 ± 98 | 1205 ± 25 | 533.41 ± 56 | 1201.7 ± 25 | 369.63 ± 32 | 1198.3 ± 25 | 106.16 ± 3.9 | 1185 ± 25 | 41.09 ± 0.8 | 1171.7 ± 25
